Entries after “also recorded” stand apart in the source; their conditions may differ. Peptide text beside a SMILES is read from it.
How the values were obtained:
[1] = test system: MZL cell lines (VL51, Karpas1718) and resistant derivatives; assay: In vitro cytotoxic activity (MTT, 72 h), summary over the MZL cell line panel; format: cell-based; details: for activity in resistant models: derivatives resistant to BTK, PI3Kδ or PI3Kα/δ inhibitors
Description: For in vitro testing, we used two human MZL cell lines, VL51 and Karpas1718, along with derivative clones rendered resistant by prolonged exposure to the BTK inhibitor ibrutinib, the PI3Kδ inhibitor idelalisib, or the PI3Kα/δ inhibitor copanlisib (Table S1; methods described in the Supporting Information). […] The calculated IC50 values ranged from 5 to 10 µM (Table S2). […] These findings were validated by treating lymphoma cells and peripheral blood mononuclear cells (PBMCs) in parallel. […] While acquired resistance to BTK or PI3K inhibitors often involves secondary mutations in the drug‐binding site, activation of alternative kinases, or evasion of apoptosis through upregulation of anti‐apoptotic proteins, these adaptations are unlikely to protect tumor cells from AMP‐mediated membrane disruption. […]
(§1) The established human cell lines VL51 1 and Karpas1718 2, derived from bona fide marginal zone lymphomas (MZL), and their derivatives with secondary resistance obtained by long exposure to the BTK inhibitor ibrutinib, the PI3Kδ inhibitor idelalisib or the PI3Kα/δ inhibitor copanlisib (three from VL51 3-5, and one from Karpas1718 6). Cell lines were cultured in RPMI supplemented with fetal bovine serum (FBS) (10%) and penicillin-streptomycin-neomycin (≈5,000 units penicillin, 5 mg streptomycin, and 10 mg neomycin/mL; Sigma-Aldrich, Darmstadt, Germany). Cell line identities were confirmed by periodic short tandem repeat (STR) DNA fingerprinting using the Promega GenePrint 10 System kit (B9510).
(§2) Cells were regularly tested for mycoplasma negativity using the MycoAlert Mycoplasma Detection Kit (Lonza, Visp, Switzerland).
(§3) […] Purity (>95%) was confirmed by reverse-phase high-performance liquid chromatography (RP-HPLC) while molecular masses were verified by mass spectrometry. Peptides were dissolved in nuclease-free water, and 2 mM stock solutions were prepared 7.
(§4) Antarctic peptides were synthesized by Caslo Aps (Caslo Aps Kongens, Lyngby, Denmark) with 98% purity. Purity was confirmed by reverse-phase high-performance liquid chromatography (RP-HPLC), and molecular masses were verified by mass spectrometry. As previously reported, the peptide stock concentration in nuclease-free water (1 mM) was determined spectrophotometrically.
(§5) In vitro cytotoxic activity
(§6) Cells were manually seeded into 96-well plates (VL51, 10’000 cells per well; SSK41, 20’000 cells per well; Karpas1718, 30’000 cells per well). Treatments were applied manually, and cell viability was assessed after 72 hours using 3-(4,5-dimethylthiazol-2-yl)-2,5-diphenyltetrazolium bromide (MTT).
(§7) After a 4-hour incubation, the reaction was terminated by adding sodium dodecyl sulfate (SDS) lysis buffer. Plates were analyzed with Cytation3, and IC50s were calculated using the 4-parameter logistic model (R environment or GraphPad Prism, Version 10.6.1). Antarctic peptides were tested at 40μM, with 1:2 dilutions down to 625 nM. Temporins were tested at 100μM, with 1:5 dilutions down to 32 nM. […]

VL51 cells = format: cell-based, human; details: 72 h
Description: as §1, §2, §3, §4, §5, §6, §7

[2] = test system: VL51-Ibru (ibrutinib-resistant VL51) cells; format: cell-based, human; details: 72 h
Description: as §1, §2, §3, §4, §5, §6, §7

[3] = test system: VL51-Idel (idelalisib-resistant VL51) cells; format: cell-based, human; details: 72 h
Description: as §1, §2, §3, §4, §5, §6, §7

[4] = test system: VL51-Copa (copanlisib-resistant VL51) cells; format: cell-based, human; details: 72 h
Description: as §1, §2, §3, §4, §5, §6, §7

[5] = test system: Karpas1718-Idel (idelalisib-resistant Karpas1718) cells; format: cell-based, human; details: 72 h
Description: as §1, §2, §3, §4, §5, §6, §7

Karpas1718 cells = format: cell-based, human; details: 72 h
Description: as §1, §2, §3, §4, §5, §6, §7

rabbit erythrocytes = details: ref [9]; cited from earlier work
Karpas1718-Idel cells = assay: Cell death and membrane integrity by Annexin V/PI staining; format: cell-based, human; details: 10 µM, 1 and 2 h, flow cytometry
Description: as §1, §2, §3
as §4, with “spectrophotometrically. […]” for “spectrophotometrically.”
Subsequently, cells were stained with Annexin V and propidium iodide (PI) (Annexin V FITC Apoptosis Detection Kit, BMS500FI-300, Life Technologies) following the manufacturer ’s instructions and analyzed through flow cytometry and immunofluorescence (Leica Thunder microscope).
PBMCs. Flow cytometric (A) and immunofluorescence (B) analyses of Annexin V/PI staining in Karpas1718-Idel cells and PBMCs after 1- and 2-hour treatments with W-trematocine or Temporin L at 10 µM. (B) Representative images (100x magnification) show brightfield, Annexin V (green), and PI […]

PBMCs = assay: as above; format: cell-based; details: 10 µM, 1 and 2 h, PBMCs treated in parallel, flow cytometry
Description: as §1
Cells were regularly tested for mycoplasma negativity using the MycoAlert Mycoplasma Detection Kit (Lonza, Visp, Switzerland). […]
Antarctic peptides were synthesized by Caslo Aps (Caslo Aps Kongens, Lyngby, Denmark) with 98% purity. […] As previously reported, the peptide stock concentration in nuclease-free water (1 mM) was determined spectrophotometrically. […]
Subsequently, cells were stained with Annexin V and propidium iodide (PI) (Annexin V FITC Apoptosis Detection Kit, BMS500FI-300, Life Technologies) following the manufacturer ’s instructions and analyzed through flow cytometry and immunofluorescence (Leica Thunder microscope). […]

nonmalignant cells = details: prior studies; ref prior studies; cited from earlier work
From the text: ABSTRACT Introduction Marginal zone lymphoma (MZL) is an indolent yet incurable B‐cell malignancy in which targeted agents such as BTK and PI3K inhibitors frequently fail due to resistance or toxicity. […] Methods Peptides were synthesized and tested for their anti‐proliferative activity in MZL cell lines. Results We evaluated the antitumor activity of seven natural AMPs, including Antarctic fish–derived trem ...

[6] = test system: primary human fibroblasts; details: up to 25 µM, 24 h, ref [9]; cited from earlier work

| IC50 (VL51 cells) [µM] | IC50 [2] [µM] | IC50 [3] [µM] | IC50 [4] [µM] | IC50 [5] [µM] | IC50 (Karpas1718 cells) [µM] | SMILES | anti-proliferative activity (in words) ([1]; MZL cell lines VL51, Karpas1718 and resistant derivatives) | cytotoxic effect ([1]; concentrations up to 50 µM, MZL cell lines) | activity in resistant models [1] | hemolysis (rabbit erythrocytes) | anti-lymphoma activity (Annexin V/PI staining) (Karpas1718-Idel cells) | sensitivity of PBMCs (Annexin V/PI staining) (PBMCs) | toxicity toward nonmalignant cells (nonmalignant cells) | cytotoxicity [6] | IC50 ([1]; 72 h) [µM] | anti-lymphoma activity (Annexin V/PI staining) (Karpas1718-Idel cells; listed as temporin L) | sensitivity of PBMCs (Annexin V/PI staining) (PBMCs; listed as temporin L) |
| --- | --- | --- | --- | --- | --- | --- | --- | --- | --- | --- | --- | --- | --- | --- | --- | --- | --- |
| 5.5 | 6.5 | 7.6 | 7.1 | 6.5 | 5 | CC[C@H](C)[C@H](NC(=O)CNC(=O)[C@H](CCCNC(=N)N)NC(=O)[C@H](CC(C)C)NC(=O)[C@H](CC(C)C)NC(=O)[C@H](Cc1c[nH]cn1)NC(=O)CNC(=O)[C@H](Cc1ccccc1)NC(=O)[C@@H](N)Cc1c[nH]c2ccccc12)C(=O)N[C@H](C(=O)N[C@@H](CO)C(=O)N[C@H](C(=O)NCC(=O)N[C@@H](CCCCN)C(=O)N[C@@H](Cc1c[nH]cn1)C(=O)N[C@H](C(=O)N[C@@H](Cc1c[nH]cn1)C(=O)NCC(=O)N[C@@H](CC(C)C)C(=O)N[C@H](C(=O)N[C@H](C(=O)NCC(=O)O)[C@@H](C)O)[C@@H](C)CC)[C@@H](C)CC)C(C)C)C(C)C [W-Trematocine] (H-WFGHLLRGIVSVGKHIHGLITG-OH; N-terminus and C-terminus assumed) | – | – | maintaining full activity in all resistant models | minimal hemolysis | active in lymphoma cells; also recorded: potent anti‐lymphoma activity | markedly less sensitive | minimal toxicity | negligible cytotoxicity | – | – | – |
| > 40 | > 40 | > 40 | > 40 | > 40 | > 40 | CC[C@H](C)[C@H](NC(=O)CNC(=O)[C@H](CCCNC(=N)N)NC(=O)[C@H](Cc1ccc(O)cc1)NC(=O)[C@H](CC(C)C)NC(=O)[C@H](CCC(N)=O)NC(=O)[C@H](CO)NC(=O)[C@H](Cc1ccccc1)NC(=O)[C@@H](N)Cc1ccccc1)C(=O)N[C@H](C(=O)N[C@@H](CO)C(=O)N[C@H](C(=O)NCC(=O)N[C@@H](CCCCN)C(=O)N[C@@H](Cc1c[nH]cn1)C(=O)N[C@H](C(=O)N[C@@H](Cc1c[nH]cn1)C(=O)NCC(=O)N[C@@H](CC(C)C)C(=O)N[C@@H](CC(C)C)C(=O)N[C@@H](CO)C(=O)NCC(=O)O)[C@@H](C)CC)C(C)C)C(C)C [Trematocine-1] (H-FFSQLYRGIVSVGKHIHGLLSG-OH; N-terminus and C-terminus assumed) | – | – | – | – | – | – | – | – | 25 to 50 | – | – |
| 8.9 | 9.6 | 6.4 | 7.4 | 10.1 | 7.5 | CC[C@H](C)[C@H](NC(=O)[C@H](CCCNC(=N)N)NC(=O)CNC(=O)[C@H](CC(C)C)NC(=O)[C@H](Cc1ccccc1)NC(=O)[C@H](CCCCN)NC(=O)[C@H](CO)NC(=O)[C@H](Cc1ccccc1)NC(=O)[C@H](Cc1c[nH]c2ccccc12)NC(=O)[C@H](CCC(N)=O)NC(=O)[C@@H](NC(=O)[C@@H](N)Cc1ccccc1)C(C)C)C(=O)N[C@@H](CC(C)C)C(N)=O [Temporin L] (H-FVQWFSKFLGRIL-NH2) | – | – | maintaining full activity in all resistant models | – | active in lymphoma cells | – | – | – | – | potent anti‐lymphoma activity | markedly less sensitive |

Continued, compound first:

| SMILES | IC50 (VL51 cells) [µM] | IC50 [2] [µM] | IC50 [3] [µM] | IC50 [4] [µM] | IC50 [5] [µM] | IC50 (Karpas1718 cells) [µM] | anti-proliferative activity (in words) ([1]; MZL cell lines VL51, Karpas1718 and resistant derivatives) | cytotoxic effect ([1]; concentrations up to 50 µM, MZL cell lines) | activity in resistant models [1] | hemolysis (rabbit erythrocytes) | anti-lymphoma activity (Annexin V/PI staining) (Karpas1718-Idel cells) | sensitivity of PBMCs (Annexin V/PI staining) (PBMCs) | toxicity toward nonmalignant cells (nonmalignant cells) | cytotoxicity [6] | IC50 ([1]; 72 h) [µM] | anti-lymphoma activity (Annexin V/PI staining) (Karpas1718-Idel cells; listed as temporin L) | sensitivity of PBMCs (Annexin V/PI staining) (PBMCs; listed as temporin L) |
| --- | --- | --- | --- | --- | --- | --- | --- | --- | --- | --- | --- | --- | --- | --- | --- | --- | --- |
| CSCC[C@H](NC(=O)CNC(=O)[C@H](Cc1c[nH]cn1)NC(=O)[C@@H](NC(=O)[C@H](CCCNC(=N)N)NC(=O)[C@H](CCC(=O)O)NC(=O)[C@H](C)NC(=O)[C@H](C)NC(=O)[C@@H](NC(=O)[C@H](CC(C)C)NC(=O)[C@H](C)NC(=O)[C@H](Cc1c[nH]cn1)NC(=O)CNC(=O)[C@@H](NC(=O)[C@H](Cc1c[nH]cn1)NC(=O)[C@H](CCCCN)NC(=O)[C@H](Cc1c[nH]c2ccccc12)NC(=O)[C@H](Cc1ccccc1)NC(=O)[C@H](CCC(=O)O)NC(=O)[C@@H](N)Cc1ccccc1)C(C)C)[C@@H](C)O)C(C)C)C(=O)N[C@@H](CC(C)C)C(=O)N[C@H](C(=O)NCC(=O)O)[C@@H](C)O [Chionodracine] (H-FEFWKHVGHALTAAERVHGMLTG-OH; N-terminus and C-terminus assumed) | > 40 | > 40 | > 40 | > 40 | > 40 | > 40 | inactive | no measurable cytotoxic effect | – | – | – | – | – | – | – | – | – |
| CC[C@H](C)[C@H](NC(=O)CNC(=O)[C@H](CO)NC(=O)[C@H](CC(C)C)NC(=O)[C@@H](NC(=O)[C@H](CCCNC(=N)N)NC(=O)CNC(=O)[C@@H](NC(=O)[C@H](CC(C)C)NC(=O)[C@@H]1CCCN1C(=O)[C@H](CC(C)C)NC(=O)[C@@H](N)Cc1ccccc1)[C@@H](C)CC)C(C)C)C(=O)N[C@@H](CC(C)C)C(N)=O [Temporin A] (H-FLPLIGRVLSGIL-NH2; N-terminus and C-terminus assumed) | 32 | 48.5 | 27.5 | 48.8 | 49 | 47.4 | – | – | – | – | – | – | – | – | – | – | – |
| CC[C@H](C)[C@H](NC(=O)CNC(=O)[C@H](CC(N)=O)NC(=O)[C@H](CC(C)C)NC(=O)[C@@H](NC(=O)[C@H](CCCNC(=N)N)NC(=O)CNC(=O)[C@@H](NC(=O)[C@@H](NC(=O)[C@@H]1CCCN1C(=O)[C@H](Cc1ccccc1)NC(=O)[C@@H](N)Cc1ccccc1)C(C)C)[C@@H](C)CC)[C@@H](C)CC)C(=O)N[C@@H](CC(C)C)C(N)=O [Temporin G] (H-FFPVIGRILNGIL-NH2; N-terminus assumed) | 35.2 | 38.1 | 28.2 | 26.5 | 101 | 31 | – | – | – | – | – | – | – | – | – | – | – |
| CC[C@H](C)[C@H](NC(=O)[C@@H]1CCCN1C(=O)[C@H](CC(C)C)NC(=O)[C@@H](N)CC(C)C)C(=O)N[C@H](C(=O)NCC(=O)N[C@@H](CC(N)=O)C(=O)N[C@@H](CC(C)C)C(=O)N[C@@H](CC(C)C)C(=O)N[C@@H](CCCCN)C(=O)N[C@@H](CO)C(=O)N[C@@H](CC(C)C)C(=O)N[C@@H](CC(C)C)C(N)=O)C(C)C [Temporin B] (H-LLPIVGNLLKSLL-NH2; N-terminus and C-terminus assumed) | 38.2 | 45.4 | 31.6 | 47.7 | 71.4 | 44.1 | – | – | – | – | – | – | – | – | – | – | – |

— publication PMC13239830, “Antimicrobial Peptides Induce Cell Death in Marginal Zone Lymphoma Models Resistant to Targeted Therapies” (EJHaem, 2026)
